In ChEMBL document CHEMBL4308841, “Synthesis, in vitro antiproliferative activity, and kinase inhibitory effects of pyrazole-containing diarylureas and diarylamides” (Eur J Med Chem, 2018):
pIC50: −log10 of the molar value.

Columns and labels:
[1] = molecular target: RAC-alpha serine/threonine-protein kinase (Homo sapiens) (UniProt P31749); assay: Inhibition of human AKT1 at 10 uM using KGSGSGRPRTSSFAEG as substrate after 40 mins in presence of [gamma33P]ATP by scintillation counting method relative to control
[2] = molecular target: Platelet-derived growth factor receptor beta (Homo sapiens) (UniProt P09619); assay: Inhibition of human PDGFRb at 10 uM using poly[Glu:Tyr] (4:1) as substrate after 40 mins in presence of [gamma33P]ATP by scintillation counting method relative to control
[3] = molecular target: Receptor-type tyrosine-protein kinase FLT3 (Homo sapiens) (UniProt P36888); assay: Inhibition of human FLT3 at 10 uM using EAIYAAPFAKKK as substrate after 40 mins in presence of [gamma33P]ATP by scintillation counting method relative to control
[4] = test system: Serine/threonine-protein kinase B-raf (Homo sapiens), P15056 [V600E]; assay: Inhibition of human BRAF V600E mutant at 10 uM using MEK1 (K97R) as substrate after 40 mins in presence of [gamma33P]ATP by scintillation counting method relative to control
[5] = molecular target: PI3-kinase p110-alpha/p85-alpha (Homo sapiens) (UniProt P27986+P42336); assay: Inhibition of human PI3K p110a/p85a at 10 uM using PI(4,5)P2:PS as substrate after 40 mins in presence of [gamma33P]ATP by scintillation counting method relative to control; assay type: protein-complex assay
[6] = molecular target: Serine/threonine-protein kinase A-Raf (Homo sapiens) (UniProt P10398); assay: Inhibition of human ARAF at 10 uM using MEK1 (K97R) as substrate after 40 mins in presence of [gamma33P]ATP by scintillation counting method relative to control
[7] = molecular target: Dual specificity mitogen-activated protein kinase kinase 1 (Homo sapiens) (UniProt Q02750); assay: Inhibition of human MEK1 at 10 uM using ERK2 (K52R) as substrate after 40 mins in presence of [gamma33P]ATP by scintillation counting method relative to control
[8] = molecular target: Epidermal growth factor receptor (Homo sapiens) (UniProt P00533); assay: Inhibition of human EGFR at 10 uM using poly[Glu:Tyr] (4:1) as substrate after 40 mins in presence of [gamma33P]ATP by scintillation counting method relative to control
[9] = molecular target: Receptor tyrosine-protein kinase erbB-4 (Homo sapiens) (UniProt Q15303); assay: Inhibition of human ERBB4 at 10 uM using poly[Glu:Tyr] (4:1) as substrate after 40 mins in presence of [gamma33P]ATP by scintillation counting method relative to control
[10] = test system: HOP-92; assay: Growth inhibition of human HOP92 cells assessed as cell growth at 1 uM incubated for 48 hrs by sulforhodamine B assay relative to control; assay type: functional; settings: HOP-92, 48 h, read-out: Activity
[11] = test system: RAW264.7; assay: Cytotoxicity against mouse RAW264.7 cells by MTT assay; assay type: cell-based
[12] = molecular target: Serine/threonine-protein kinase B-raf (Homo sapiens, UniProt P15056, V600E); assay: Inhibition of human BRAF V600E mutant using MEK1 (K97R) as substrate after 40 mins in presence of [gamma33P]ATP by scintillation counting method
[13] = molecular target: ALK tyrosine kinase receptor (Homo sapiens) (UniProt Q9UM73); assay: Inhibition of human ALK at 10 uM using poly[Glu:Tyr] (4:1) as substrate after 40 mins in presence of [gamma33P]ATP by scintillation counting method relative to control
[14] = molecular target: Mitogen-activated protein kinase 8 (Homo sapiens) (UniProt P45983); assay: Inhibition of human JNK1 at 10 uM using ATF2 as substrate after 40 mins in presence of [gamma33P]ATP by scintillation counting method relative to control
[15] = test system: HOP-92; assay: Growth inhibition of human HOP92 cells incubated for 48 hrs by sulforhodamine B assay; assay type: functional, cell-based; settings: HOP-92, 48 h
[16] = molecular target: Macrophage colony-stimulating factor 1 receptor (Homo sapiens) (UniProt P07333); assay: Inhibition of human FMS at 10 uM using poly[Glu:Tyr] (4:1) as substrate after 40 mins in presence of [gamma33P]ATP by scintillation counting method relative to control
[17] = molecular target: Hepatocyte growth factor receptor (Homo sapiens) (UniProt P08581); assay: Inhibition of human c-MET at 10 uM using KKKSPGEYVNIEFG as substrate after 40 mins in presence of [gamma33P]ATP by scintillation counting method relative to control
[18] = test system: TK-10; assay: Growth inhibition of human TK10 cells incubated for 48 hrs by sulforhodamine B assay; assay type: functional, cell-based; settings: TK-10, 48 h
[19] = read-out: LC50 (the source's name)
[20] = read-out: pLC50 (the source's name) (converted)

Sequence of Serine/threonine-protein kinase B-raf (P15056 2-766 V600E limits assumed): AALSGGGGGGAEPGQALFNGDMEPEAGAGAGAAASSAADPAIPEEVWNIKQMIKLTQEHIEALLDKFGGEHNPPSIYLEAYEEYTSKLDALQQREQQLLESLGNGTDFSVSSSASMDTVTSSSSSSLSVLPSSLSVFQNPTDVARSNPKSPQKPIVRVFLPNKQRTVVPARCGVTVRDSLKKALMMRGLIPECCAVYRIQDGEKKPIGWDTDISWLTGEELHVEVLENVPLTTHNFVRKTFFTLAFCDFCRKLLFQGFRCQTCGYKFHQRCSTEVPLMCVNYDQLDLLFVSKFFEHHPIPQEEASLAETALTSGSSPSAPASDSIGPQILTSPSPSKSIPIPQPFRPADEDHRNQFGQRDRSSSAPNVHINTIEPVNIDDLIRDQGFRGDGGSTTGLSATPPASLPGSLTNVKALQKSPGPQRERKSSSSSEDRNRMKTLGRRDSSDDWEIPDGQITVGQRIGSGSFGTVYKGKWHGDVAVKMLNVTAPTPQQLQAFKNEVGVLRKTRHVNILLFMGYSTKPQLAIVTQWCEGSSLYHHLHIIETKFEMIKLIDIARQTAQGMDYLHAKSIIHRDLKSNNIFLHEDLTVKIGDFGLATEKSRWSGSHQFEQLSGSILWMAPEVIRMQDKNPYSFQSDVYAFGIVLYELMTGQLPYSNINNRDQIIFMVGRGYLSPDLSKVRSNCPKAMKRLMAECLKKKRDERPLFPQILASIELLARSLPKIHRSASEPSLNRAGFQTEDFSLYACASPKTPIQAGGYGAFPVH
Sequence of Platelet-derived growth factor receptor beta (Homo sapiens) (P09619 whole entry): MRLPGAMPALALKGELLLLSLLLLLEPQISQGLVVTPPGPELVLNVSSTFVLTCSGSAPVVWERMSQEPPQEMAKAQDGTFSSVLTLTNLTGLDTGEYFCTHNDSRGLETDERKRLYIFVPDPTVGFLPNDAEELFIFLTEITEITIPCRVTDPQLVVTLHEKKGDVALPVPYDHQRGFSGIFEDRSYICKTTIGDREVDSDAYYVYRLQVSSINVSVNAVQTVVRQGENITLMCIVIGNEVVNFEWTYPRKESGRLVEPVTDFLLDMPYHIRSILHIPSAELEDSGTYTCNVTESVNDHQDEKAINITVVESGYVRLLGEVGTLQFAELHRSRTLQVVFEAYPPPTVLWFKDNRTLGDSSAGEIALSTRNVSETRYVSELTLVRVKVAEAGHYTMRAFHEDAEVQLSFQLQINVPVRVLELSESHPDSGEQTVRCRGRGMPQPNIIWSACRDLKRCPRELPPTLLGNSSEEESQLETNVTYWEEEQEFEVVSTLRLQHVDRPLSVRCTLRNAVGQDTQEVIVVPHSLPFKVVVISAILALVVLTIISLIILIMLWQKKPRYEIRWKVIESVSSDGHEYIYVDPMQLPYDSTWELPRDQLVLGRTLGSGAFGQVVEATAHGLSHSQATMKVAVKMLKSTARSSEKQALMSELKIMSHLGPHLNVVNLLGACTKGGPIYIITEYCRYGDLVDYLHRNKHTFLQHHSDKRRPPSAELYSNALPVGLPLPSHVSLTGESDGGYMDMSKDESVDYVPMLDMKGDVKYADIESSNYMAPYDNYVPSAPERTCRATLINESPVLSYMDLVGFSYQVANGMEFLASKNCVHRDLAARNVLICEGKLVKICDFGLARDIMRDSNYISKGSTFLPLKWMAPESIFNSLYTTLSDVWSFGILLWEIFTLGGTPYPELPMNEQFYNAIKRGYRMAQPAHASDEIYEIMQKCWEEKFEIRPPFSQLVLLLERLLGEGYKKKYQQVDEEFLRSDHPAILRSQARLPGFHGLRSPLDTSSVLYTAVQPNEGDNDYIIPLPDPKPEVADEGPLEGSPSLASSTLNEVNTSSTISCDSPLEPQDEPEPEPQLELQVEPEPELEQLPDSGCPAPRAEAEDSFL
Sequence of Hepatocyte growth factor receptor (Homo sapiens) (P08581 whole entry): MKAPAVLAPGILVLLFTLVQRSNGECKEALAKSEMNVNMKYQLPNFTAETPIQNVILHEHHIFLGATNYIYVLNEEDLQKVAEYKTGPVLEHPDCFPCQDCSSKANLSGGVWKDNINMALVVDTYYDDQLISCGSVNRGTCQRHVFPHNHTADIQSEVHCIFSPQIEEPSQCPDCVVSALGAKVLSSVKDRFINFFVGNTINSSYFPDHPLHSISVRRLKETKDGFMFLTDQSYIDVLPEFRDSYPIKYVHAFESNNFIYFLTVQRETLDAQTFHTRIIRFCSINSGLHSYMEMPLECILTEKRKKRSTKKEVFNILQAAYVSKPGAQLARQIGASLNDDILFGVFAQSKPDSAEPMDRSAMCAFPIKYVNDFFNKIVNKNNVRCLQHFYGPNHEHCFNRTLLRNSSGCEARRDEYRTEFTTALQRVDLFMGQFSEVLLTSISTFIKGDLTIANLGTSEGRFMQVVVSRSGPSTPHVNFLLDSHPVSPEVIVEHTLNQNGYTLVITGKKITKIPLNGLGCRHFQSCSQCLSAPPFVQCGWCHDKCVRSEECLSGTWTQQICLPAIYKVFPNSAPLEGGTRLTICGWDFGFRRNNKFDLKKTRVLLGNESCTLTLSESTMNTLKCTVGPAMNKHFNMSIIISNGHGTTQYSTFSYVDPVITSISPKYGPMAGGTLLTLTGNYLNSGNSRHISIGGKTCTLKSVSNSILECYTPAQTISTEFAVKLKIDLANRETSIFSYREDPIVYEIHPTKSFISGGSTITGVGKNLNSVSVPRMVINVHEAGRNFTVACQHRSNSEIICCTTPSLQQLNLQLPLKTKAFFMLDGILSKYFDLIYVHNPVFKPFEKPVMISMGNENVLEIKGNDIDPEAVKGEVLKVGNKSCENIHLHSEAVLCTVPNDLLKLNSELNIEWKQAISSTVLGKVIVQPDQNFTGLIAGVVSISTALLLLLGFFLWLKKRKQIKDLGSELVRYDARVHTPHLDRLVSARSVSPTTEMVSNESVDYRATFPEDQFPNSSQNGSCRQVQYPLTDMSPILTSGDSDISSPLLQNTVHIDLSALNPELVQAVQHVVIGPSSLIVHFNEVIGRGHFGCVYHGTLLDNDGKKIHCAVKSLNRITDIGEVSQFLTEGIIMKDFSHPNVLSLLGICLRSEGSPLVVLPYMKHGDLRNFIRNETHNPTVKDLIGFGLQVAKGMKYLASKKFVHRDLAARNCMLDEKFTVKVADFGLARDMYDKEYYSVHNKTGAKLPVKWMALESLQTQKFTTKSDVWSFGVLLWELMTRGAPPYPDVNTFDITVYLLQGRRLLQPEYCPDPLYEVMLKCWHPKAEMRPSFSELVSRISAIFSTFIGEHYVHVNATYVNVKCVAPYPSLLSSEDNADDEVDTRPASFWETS
Sequence of Serine/threonine-protein kinase B-raf (Homo sapiens), P15056 [V600E] (P15056 whole entry V600E): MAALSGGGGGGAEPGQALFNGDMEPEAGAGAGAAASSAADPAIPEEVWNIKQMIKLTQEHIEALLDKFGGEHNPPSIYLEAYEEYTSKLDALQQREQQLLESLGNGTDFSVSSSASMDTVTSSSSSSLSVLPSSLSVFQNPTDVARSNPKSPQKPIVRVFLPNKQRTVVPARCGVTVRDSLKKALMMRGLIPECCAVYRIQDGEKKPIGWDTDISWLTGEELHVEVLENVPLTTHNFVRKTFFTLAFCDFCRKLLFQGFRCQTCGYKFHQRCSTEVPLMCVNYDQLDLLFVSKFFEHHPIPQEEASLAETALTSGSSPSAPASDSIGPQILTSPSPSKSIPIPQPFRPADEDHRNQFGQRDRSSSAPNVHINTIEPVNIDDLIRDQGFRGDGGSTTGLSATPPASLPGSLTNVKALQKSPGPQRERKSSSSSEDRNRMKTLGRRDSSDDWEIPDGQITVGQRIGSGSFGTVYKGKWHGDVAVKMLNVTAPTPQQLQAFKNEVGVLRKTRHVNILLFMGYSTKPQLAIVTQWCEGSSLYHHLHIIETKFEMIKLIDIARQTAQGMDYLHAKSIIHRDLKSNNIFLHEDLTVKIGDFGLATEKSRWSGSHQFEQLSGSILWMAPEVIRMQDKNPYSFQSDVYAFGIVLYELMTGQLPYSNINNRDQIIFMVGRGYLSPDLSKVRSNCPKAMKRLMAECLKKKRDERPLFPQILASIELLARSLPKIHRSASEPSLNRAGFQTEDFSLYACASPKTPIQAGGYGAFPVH
Sequence of Mitogen-activated protein kinase 8 (Homo sapiens) (P45983 whole entry): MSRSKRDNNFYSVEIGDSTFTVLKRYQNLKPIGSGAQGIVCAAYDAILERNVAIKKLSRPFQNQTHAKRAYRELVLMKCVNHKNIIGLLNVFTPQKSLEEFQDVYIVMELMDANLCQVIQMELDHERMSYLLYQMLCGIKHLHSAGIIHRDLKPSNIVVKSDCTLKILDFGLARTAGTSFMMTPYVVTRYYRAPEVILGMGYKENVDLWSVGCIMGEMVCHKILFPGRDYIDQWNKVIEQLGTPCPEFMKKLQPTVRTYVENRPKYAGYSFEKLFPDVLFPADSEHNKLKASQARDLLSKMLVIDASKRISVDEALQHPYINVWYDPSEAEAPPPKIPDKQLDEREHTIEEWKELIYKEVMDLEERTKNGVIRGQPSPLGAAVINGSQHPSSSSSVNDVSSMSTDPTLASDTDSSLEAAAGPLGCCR
Sequence of RAC-alpha serine/threonine-protein kinase (Homo sapiens) (P31749 whole entry): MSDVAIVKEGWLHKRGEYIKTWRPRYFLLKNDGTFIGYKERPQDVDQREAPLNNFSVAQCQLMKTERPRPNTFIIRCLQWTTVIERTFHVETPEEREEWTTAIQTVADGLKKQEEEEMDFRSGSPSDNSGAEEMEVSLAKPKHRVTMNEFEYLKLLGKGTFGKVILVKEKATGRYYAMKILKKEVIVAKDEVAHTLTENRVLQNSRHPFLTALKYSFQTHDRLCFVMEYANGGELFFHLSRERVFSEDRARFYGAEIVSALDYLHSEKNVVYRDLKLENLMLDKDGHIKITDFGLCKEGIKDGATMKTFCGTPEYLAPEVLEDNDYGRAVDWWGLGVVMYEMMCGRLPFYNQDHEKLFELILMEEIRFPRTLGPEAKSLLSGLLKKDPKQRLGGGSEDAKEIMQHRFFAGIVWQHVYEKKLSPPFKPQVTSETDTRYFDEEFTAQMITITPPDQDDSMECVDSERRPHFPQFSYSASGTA

**Q.** For `COc1cc(Cl)cc(-c2nn(-c3cccc(NC(=O)Nc4cc(C(F)(F)F)cc(C(F)(F)F)c4)c3)cc2-c2ccncc2)c1`, which inhibition [1] is on record?
**A.** The inhibition was -5.92%.

**Q.** And the inhibition [2]?
**A.** Its inhibition is -9.26%.

**Q.** And the inhibition [3]?
**A.** The inhibition was -2.82%.

**Q.** And the inhibition [4]?
**A.** Its inhibition is 94.7%.

**Q.** And the inhibition [5]?
**A.** The inhibition was 16.8%.

**Q.** What about the inhibition [6] of the same compound?
**A.** The inhibition was 49.2%.

**Q.** And the inhibition [7]?
**A.** Its inhibition is -7.99%.

**Q.** And the inhibition [8]?
**A.** Its inhibition is -7.47%.

**Q.** And the inhibition [9]?
**A.** The inhibition was 0.9%.

**Q.** And the growth at 1 µM [10]?
**A.** The growth at 1 µM was -10%.

**Q.** And the pIC50 [11]?
**A.** The pIC50 was under 4.00.

**Q.** What about the pIC50 [12] of the same compound?
**A.** The pIC50 was 6.41.

**Q.** And the inhibition [13]?
**A.** The inhibition was -3.77%.

**Q.** And the inhibition [14]?
**A.** Its inhibition is 2.27%.

**Q.** And the pIC50 [15]?
**A.** Its pIC50 is 6.64.

**Q.** And the GI50 ([15]; read-out: GI50)?
**A.** The GI50 was 228 nM.

**Q.** What about the CC50 [15, 19] of the same compound?
**A.** The CC50 was 2010 nM.

**Q.** And the TGI ([15]; read-out: TGI)?
**A.** Its TGI is 780 nM.

**Q.** And the GI50 ([15]; read-out: pGI50 (converted))?
**A.** Its GI50 is 229 nM.

**Q.** What about the CC50 [15, 20] of the same compound?
**A.** Its CC50 is 20000 nM.

**Q.** What about the TGI ([15]; read-out: pTGI (converted)) of the same compound?
**A.** The TGI was 776 nM.

**Q.** And the inhibition [16]?
**A.** The inhibition was -0.94%.

**Q.** And the inhibition [17]?
**A.** Its inhibition is 5.66%.

**Q.** What about the pIC50 [18] of the same compound?
**A.** Its pIC50 is 6.17.

**Q.** And the GI50 ([18]; read-out: GI50)?
**A.** Its GI50 is 654 nM.

**Q.** What about the CC50 [18, 19] of the same compound?
**A.** The CC50 was 42.5 nM.

**Q.** What about the TGI ([18]; read-out: TGI) of the same compound?
**A.** The TGI was 14600 nM.

**Q.** What about the GI50 ([18]; read-out: pGI50 (converted)) of the same compound?
**A.** The GI50 was 708 nM.

**Q.** What about the CC50 [18, 20] of the same compound?
**A.** The CC50 was 42700 nM.

**Q.** And the TGI ([18]; read-out: pTGI (converted))?
**A.** Its TGI is 14800 nM.
